Measured values: patent publication US20250042862A1, “AROMATIC HETEROCYCLIC COMPOUND AND APPLICATION THEREOF” (Shanghai Institute of Materia Medica, Chinese Academy of …, priority 2021, published 2025)
pIC50: −log10 of the molar value.

Target: human recombinant LSD1 protein (Homo sapiens (Human), UniProt O60341)
Experiment: In vitro enzyme inhibition activity assay - LSD1 (Lance Ultra TR-FRET)
Format: biochemical
Conditions: all compounds tested in the form of hydrochloride
Experimental: The purpose of this experiment was to test the in vitro inhibitory activity of the compounds against LSD1. The human recombinant LSD1 protein used in the experiment was purchased from Active Motif, and the enzyme level activity testing assay of LSD1 was performed using the Lance Ultra LSD1 Histone H3 Lysine 4 Demethylase Assay Kit (PerkinElmer). Tris-buffer (50 mMTris-HCl, 50 mMNaCl, 0.01% Tween-20, 1 mM DTT, 10 μM FAD, 10% glycerol, pH 9.0) was first prepared, and after preparation, the LSD1 fractions required for test were placed in this buffer and incubated for one hour at room temperature; the fractions included 4 μL of substrate solution ([…] Bio-H3K4me2, 1-24aa), 4 μL of enzyme solution (4 nM LSD1), and 2 μL of inhibitor in a 384-well microplate. After these operations, another 5 μL of assay mixture containing Eu-labeled H3K4me0 antibody and ULight-Streptavidin anti-biotin protein was added to the system, after which the fluorescence intensity of the components to be tested was detected by using Envision (PerkinElmer) in TR-FRET mode (excitation wavelength of 320 nm, emission wavelength of 620 nm). The test was repeated a total of three times to minimize errors. The final IC50 data were calculated by the software GraphPad Prism 5, and finally the sigmoidal dose-response (variable slope) method was used to obtain the fitted curve.
The LSD1 inhibitory activities of representative compounds of the present application as well as the positive control compound CC90011 were provided in Table 2. All compounds were tested in the form of hydrochloride.

Structure (SMILES) | pIC50
Cc1nn(C)c(C)c1-c1ccc2nc(NC[C@H]3CCNC3)nc(-c3ccc(C#N)c(F)c3)c2c1 [Compound 49, (S)-2-fluoro-4-(2-((pyrrolidin-3-ylmethyl)amino)-6-(1,3,5-trimethyl-1H-pyrazol-4-yl)quinazolin-4-yl)benzonitrile] | 6.52 to 7.52
N#Cc1ccc(-c2nc(NC[C@H]3CCNC3)nc3ccc(-c4c(F)cccc4F)cc23)cc1F [Compound 50, (S)-4-(6-(2,6-difluorophenyl)-2-((pyrrolidin-3-ylmethyl)amino)quinazolin-4-yl)-2-fluorobenzonitrile] | 6.52 to 7.52
N#Cc1ccc(-c2nc(NC[C@H]3CCNC3)nc3ccc(-c4c(Cl)cccc4Cl)cc23)cc1F [Compound 51, (S)-4-(6-(2,6-dichlorophenyl)-2-((pyrrolidin-3-ylmethyl)amino)quinazolin-4-yl)-2-fluorobenzonitrile] | ≥ 7.52
N#Cc1ccc(-c2nc(NC[C@H]3CCNC3)nc3ccc(-c4c(Cl)cccc4C(F)(F)F)cc23)cc1F [Compound 52] | 6.52 to 7.52
Cc1cccc(Cl)c1-c1ccc2nc(NC[C@H]3CCNC3)nc(-c3ccc(C#N)c(F)c3)c2c1 [Compound 53] | ≥ 7.52
N#Cc1ccc(-c2nc(NC[C@H]3CCNC3)nc3ccc(-c4c(F)cccc4C(F)(F)F)cc23)cc1F [Compound 54, (S)-4-(6-(2-fluoro-6-(trifluoromethylphenyl)-2-(pyrrolidin-3-ylmethyl)amino)quinazolin-4-yl)-2-fluorobenzonitrile] | ≥ 7.52
N#Cc1ccc(-c2nc(NC[C@H]3CCNC3)nc3ccc(-c4c(F)cccc4Cl)cc23)cc1F [Compound 55] | ≥ 7.52
N#Cc1ccc(-c2nc(NC[C@H]3CCNC3)nc3ccc(-c4cc(F)ccc4C(F)(F)F)cc23)cc1F [Compound 56, (S)-4-(6-(5-fluoro-2-(trifluoromethyl)-2-(pyrrolidin-3-ylmethyl)amino)quinazolin-4-yl)-2-fluorobenzonitrile] | 6.52 to 7.52
N#Cc1ccc(-c2nc(NC[C@H]3CCNC3)nc3ccc(-c4cccc(F)c4C(F)(F)F)cc23)cc1F [Compound 57, (S)-4-(6-(3-fluoro-2-(trifluoromethylphenyl)-2-(pyrrolidin-3-ylmethyl)amino)quinazolin-4-yl)-2-fluorobenzonitrile] | ≥ 7.52
Cc1cccc(-c2ccc3nc(NC[C@H]4CCNC4)nc(-c4ccc(C#N)c(F)c4)c3c2)c1C(F)(F)F [Compound 59, (S)-2-fluoro-4-(6-(3-methyl-2-(trifluoromethyl)phenyl)-2-((pyrrolidin-3-ylmethyl)amino)quinazolin-4-yl)benzonitrile] | 6.52 to 7.52
N#Cc1ccc(-c2nc(NC[C@H]3CCNC3)nc3ccc(-c4c(F)ccc(O)c4F)cc23)cc1F [Compound 60] | 6.52 to 7.52
N#Cc1ccc(-c2nc(NC[C@H]3CCNC3)nc3ccc(-c4cccc(O)c4F)cc23)cc1F [Compound 61, (S)-2-fluoro-4-(6-(2-fluoro-3-hydroxyphenyl)-2-((pyrrolidin-3-ylmethyl)amino)quinazolin-4-yl)benzonitrile] | 6.52 to 7.52
CC1(N)CCN(c2nc(-c3ccc(C#N)c(F)c3)c3cc(-c4c(F)cccc4C(F)(F)F)ccc3n2)CC1 [Compound 63, 4-(2-(4-Amino-4-methylpiperidin-1-yl)-6-(2-fluoro-6-(trifluoromethyl)phenyl)quinazolin-4-yl)-2-fluorobenzonitrile] | ≥ 7.52
N#Cc1ccc(-c2nc(N3CC4C(N)C4C3)nc3ccc(-c4c(F)cccc4C(F)(F)F)cc23)cc1F (centres unmarked) [Compound 65, 4-(2-(6-Amino-3-azabicyclo[3.1.0]hexan-3-yl)-6-(2-fluoro-6-(trifluoromethyl)phenyl)quinazolin-4-yl)-2-fluorobenzonitrile] | 6.52 to 7.52
CNC1CCN(c2nc(-c3ccc(C#N)c(F)c3)c3cc(-c4c(F)cccc4C(F)(F)F)ccc3n2)CC1 [Compound 66, 2-Fluoro-4-(6-(2-fluoro-6-(trifluoromethyl)phenyl)-2-(4-(methylamino)piperidin-1-yl)quinazolin-4-yl)benzonitrile] | ≥ 7.52
N#Cc1ccc(-c2nc(N3CC[C@H](N)[C@H](F)C3)nc3ccc(-c4c(F)cccc4C(F)(F)F)cc23)cc1F [Compound 67, 4-(2-((3R,4S)-4-amino-3-fluoropiperidin-1-yl)-6-(2-fluoro-6-(trifluoromethyl)phenyl)quinazolin-4-yl)-2-fluorobenzonitrile] | ≥ 7.52

Structure (SMILES) | pIC50
C[C@@H]1CN(c2nc(-c3ccc(C#N)c(F)c3)c3cc(-c4c(F)cccc4C(F)(F)F)ccc3n2)CC[C@H]1N [Compound 68, 4-(2-((3R,4R)-4-amino-3-methylpiperidin-1-yl)-6-(2-fluoro-6-(trifluoromethyl)phenyl)quinazolin-4-yl)-2-fluorobenzonitrile] | ≥ 7.52
N#Cc1ccc(-c2nc(N3C4CCC3CC(N)C4)nc3ccc(-c4c(F)cccc4C(F)(F)F)cc23)cc1F (centres unmarked) [Compound 69, 4-(2-(3-amino-8-azabicyclo[3.2.1]octan-8-yl)-6-(2-fluoro-6-(trifluoromethyl)phenyl)quinazolin-4-yl)-2-fluorobenzonitrile] | ≥ 7.52
N#Cc1ccc(-c2nc(N3CCCC(N)C3)nc3ccc(-c4c(F)cccc4C(F)(F)F)cc23)cc1F (centres unmarked) [Compound 70, 4-(2-(3-aminopiperidin-1-yl)-6-(2-fluoro-6-(trifluoromethyl)phenyl)quinazolin-4-yl)-2-fluorobenzonitrile] | ≥ 7.52
CC1(C)CN(c2nc(-c3ccc(C#N)c(F)c3)c3cc(-c4c(F)cccc4C(F)(F)F)ccc3n2)CCC1N (centres unmarked) [Compound 71, 4-(2-(4-amino-3,3-dimethylpiperidin-1-yl)-6-(2-fluoro-6-(trifluoromethyl)phenyl)quinazolin-4-yl)-2-fluorobenzonitrile] | ≥ 7.52
N#Cc1ccc(-c2nc(N3CCCC(N)CC3)nc3ccc(-c4c(F)cccc4C(F)(F)F)cc23)cc1F (centres unmarked) [Compound 72, 4-(2-(4-aminoazepan-1-yl)-6-(2-fluoro-6-(trifluoromethyl)phenyl)quinazolin-4-yl)-2-fluorobenzonitrile] | ≥ 7.52
CN(C)C1CCN(c2nc(-c3ccc(C#N)c(F)c3)c3cc(-c4c(F)cccc4C(F)(F)F)ccc3n2)CC1 [Compound 73, 4-(2-(4-(Dimethylamino)piperidin-1-yl)-6-(2-fluoro-6-(trifluoromethyl)phenyl)quinazolin-4-yl)-2-fluorobenzonitrile] | ≥ 7.52
N#Cc1ccc(-c2nc(N3CCC[C@@H](N)C3)nc3ccc(-c4c(F)cccc4C(F)(F)F)cc23)cc1F [Compound 74, (R)-4-(2-(3-aminopiperidin-1-yl)-6-(2-fluoro-6-(trifluoromethyl)phenyl)quinazolin-4-yl)-2-fluorobenzonitrile] | ≥ 7.52
N#Cc1ccc(-c2nc(N3CCC[C@H](N)C3)nc3ccc(-c4c(F)cccc4C(F)(F)F)cc23)cc1F [Compound 75, (S)-4-(2-(3-aminopiperidin-1-yl)-6-(2-fluoro-6-(trifluoromethyl)phenyl)quinazolin-4-yl)-2-fluorobenzonitrile] | 6.52 to 7.52
N#Cc1ccc(-c2nc(N3CCC4NCCC4C3)nc3ccc(-c4c(F)cccc4C(F)(F)F)cc23)cc1F (centres unmarked) [Compound 76, 2-Fluoro-4-(6-(2-fluoro-6-(trifluoromethyl)phenyl)-2-(octahydro-5H-pyrrolo[3,2-c]pyridin-5-yl)quinazolin-4-yl)benzonitrile] | ≥ 7.52
N#Cc1ccc(-c2nc(N3CCC4(CCCN4)CC3)nc3ccc(-c4c(F)cccc4C(F)(F)F)cc23)cc1F [Compound 77, 2-Fluoro-4-(6-(2-fluoro-6-(trifluoromethyl)phenyl)-2-(1,8-diazaspiro[4.5]dec-8-yl)quinazolin-4-yl)benzonitrile] | ≥ 7.52
N#Cc1ccc(-c2nc(N3CCC(N)CC3)nc3cc(F)c(-c4ccccc4F)cc23)cc1F [Compound 78, 4-(2-(4-aminopiperidin-1-yl)-7-fluoro-6-(2-fluorophenyl)quinazolin-4-yl)-2-fluorobenzonitrile] | ≥ 7.52
N#Cc1ccc(-c2nc(N3CCC(N)CC3)nc3cc(F)c(-c4ccccc4C(F)(F)F)cc23)cc1F [Compound 79, 4-(2-(4-Aminopiperidin-1-yl)-7-fluoro-6-(2-(trifluoromethyl)phenyl)quinazolin-4-yl)-2-fluorobenzonitrile] | 6.52 to 7.52
N#Cc1ccc(-c2nc(N3CCC(N)CC3)nc3c(F)cc(-c4ccccc4C(F)(F)F)cc23)cc1F [Compound 80, 4-(2-(4-aminopiperidin-1-yl)-8-fluoro-6-(2-trifluoromethylphenyl)quinazolin-4-yl)-2-fluorobenzonitrile] | ≥ 7.52
N#Cc1ccc(-c2nc(N3CCC(N)CC3)nc3c(F)cc(-c4ccccc4F)cc23)cc1F [Compound 81] | 6.52 to 7.52
N#Cc1ccc(-c2nc(N3CCC(N)CC3)nc3c(F)cc(-c4c(F)cccc4C(F)(F)F)cc23)cc1F [Compound 82] | ≥ 7.52
N#Cc1ccc(-c2nc(N3CC[C@@H](N)[C@@H](F)C3)nc3ccc(-c4c(F)cccc4C(F)(F)F)cc23)cc1F [Compound 83, 4-(2-((3S,4R)-4-amino-3-fluoropiperidin-1-yl)-6-(2-fluoro-6-(trifluoromethyl)phenyl)quinazolin-4-yl)-2-fluorobenzonitrile] | 6.52 to 7.52
